In PMC8292455, “Kinetic characterisation and inhibitor sensitivity of Candida albicans and Candida auris recombinant AOX expressed in a self-assembled proteoliposome system” (Scientific Reports, 2021):

How the values were obtained:
C. albicans AOX2 [1] = target: T1, C. albicans AOX2 (Candida albicans, UniProt Q9UV71); assay: NADH oxidation at […] nm in NDH-2/AOX proteoliposomes, dose-response; type: biochemical
T1 construct: twin-strep tag (pET15b.TS, pTS.CalbAOX2) kept; from E. coli FN102; in self-assembled proteoliposomes
T1 sequence (Q9UV71 27-365): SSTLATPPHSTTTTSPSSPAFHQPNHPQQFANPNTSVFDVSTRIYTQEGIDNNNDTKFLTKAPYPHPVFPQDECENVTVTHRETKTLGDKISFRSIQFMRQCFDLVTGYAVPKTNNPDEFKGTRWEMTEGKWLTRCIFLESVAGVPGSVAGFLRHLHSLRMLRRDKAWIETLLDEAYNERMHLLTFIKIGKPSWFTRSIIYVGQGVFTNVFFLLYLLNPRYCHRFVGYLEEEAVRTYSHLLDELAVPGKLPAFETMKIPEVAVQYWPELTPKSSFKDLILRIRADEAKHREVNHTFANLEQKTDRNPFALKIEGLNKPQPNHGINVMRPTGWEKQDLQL

C. auris AOX [2] = target: T2, C. auris AOX (Candidozyma auris, UniProt A0A0L0NPQ3); assay: as above; type: biochemical
T2 construct: twin-strep tag (pET15b.TS, pTS.CaAOX) kept; from E. coli FN102; in self-assembled proteoliposomes

NDH-2 = target: T3, NDH-2 (Caldalkalibacillus thermarum, UniProt F5L3B8); assay: NADH oxidation at […] nm; type: biochemical; details: 50 mM MOPS pH 7.5, 250 uM Q1, 300 uM NADH
T3 construct: gene CathTA2_0279; His-tagged, from E. coli C41 (plasmid pTRCndh2); predicted mass 44 kDa
T3 sequence (F5L3B8 1-399): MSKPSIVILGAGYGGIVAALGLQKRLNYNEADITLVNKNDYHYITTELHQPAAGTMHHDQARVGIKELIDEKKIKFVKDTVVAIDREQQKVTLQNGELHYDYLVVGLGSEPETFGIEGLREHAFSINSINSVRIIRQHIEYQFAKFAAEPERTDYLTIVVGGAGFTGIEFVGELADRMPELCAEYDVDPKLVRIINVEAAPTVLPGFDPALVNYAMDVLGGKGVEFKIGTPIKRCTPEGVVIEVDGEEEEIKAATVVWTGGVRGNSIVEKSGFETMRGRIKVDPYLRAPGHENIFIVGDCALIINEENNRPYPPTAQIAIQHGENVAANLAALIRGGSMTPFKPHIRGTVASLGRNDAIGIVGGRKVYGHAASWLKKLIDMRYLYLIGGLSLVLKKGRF

[3] = system: COc1c(O)c(C)c(C/C=C(\C)CC/C=C(\C)CC/C=C(\C)CC/C=C(\C)CC/C=C(\C)CC/C=C(\C)CC/C=C(\C)CC/C=C(\C)CC/C=C(\C)CCC=C(C)C)c(O)c1OC; assay: purified protein; details: 65 mM MOPS pH 7.5, 300 uM NADH, excess NDH-2, Q10 concentration in the lipid phase
C. auris AOX [4] = target: T2, C. auris AOX; assay: oxygen consumption of NDH-2/AOX proteoliposomes (Oroboros oxygraph), dose-response; type: biochemical
C. albicans AOX2 [5] = target: T1, C. albicans AOX2; assay: as above; type: biochemical
purified protein = substrate: COc1c(O)c(C)c(C/C=C(\C)CC/C=C(\C)CC/C=C(\C)CC/C=C(\C)CC/C=C(\C)CC/C=C(\C)CC/C=C(\C)CC/C=C(\C)CC/C=C(\C)CCC=C(C)C)c(O)c1OC; assay: purified protein; type: biochemical, Candida albicans; details: 65 mM MOPS pH 7.5, 300 uM NADH, excess NDH-2, Q10 concentration in the lipid phase

T2 sequence (A0A0L0NPQ3 25-333 limits assumed): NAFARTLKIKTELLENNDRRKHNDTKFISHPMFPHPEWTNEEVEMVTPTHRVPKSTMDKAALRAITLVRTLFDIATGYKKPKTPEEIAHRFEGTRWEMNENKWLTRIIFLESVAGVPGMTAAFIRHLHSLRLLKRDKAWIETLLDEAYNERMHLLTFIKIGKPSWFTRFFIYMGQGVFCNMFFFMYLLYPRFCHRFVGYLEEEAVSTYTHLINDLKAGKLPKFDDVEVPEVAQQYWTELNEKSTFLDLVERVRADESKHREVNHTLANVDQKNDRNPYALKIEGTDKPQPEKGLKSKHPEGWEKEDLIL

**Q.** `CC(C)=CCC/C(C)=C/Cc1c(O)c(Cl)c(C)c(C=O)c1O` [CB, colletochlorin B] was tested. Which IC50 (C. albicans AOX2 [1]) did it give?
**A.** 0.053 ± 0.016 µM

**Q.** What about the IC50 (C. auris AOX [2]) of the same molecule?
**A.** 0.055 ± 0.01 µM

**Q.** How did the “NADH oxidation at 340 nm” value (NDH-2) turn out when `NC(=O)C1=CN([C@@H]2O[C@H](COP(=O)(O)OP(=O)(O)OC[C@H]3O[C@@H](n4cnc5c(N)ncnc54)[C@H](O)[C@@H]3O)[C@@H](O)[C@H]2O)C=CC1` [NADH] was run?
**A.** measured spectrophotometrically by measuring the oxidation of NADH at A340 nm

**Q.** For C. auris AOX (Candidozyma auris), which Km [3] is on record?
**A.** 7.3 ± 1.4 mM

**Q.** And the kcat [3]?
**A.** 108 ± 3 s⁻¹

**Q.** Which IC50 (C. auris AOX [4]) does the source give for `O=C(NO)c1ccccc1O` [SHAM] here?
**A.** 5000 ± 600 µM

**Q.** And the IC50 (C. albicans AOX2 [5])?
**A.** 3500 ± 700 µM

**Q.** `C/C(=C\Cc1c(O)c(Cl)c(C)c(C=O)c1O)CC/C=C(\C)[C@@H]1CC(=O)C(C)(C)O1` [AF, Ascofuranone] was tested. Which IC50 (C. albicans AOX2 [1]) did it give?
**A.** 0.213 ± 0.027 µM

**Q.** And the IC50 (C. auris AOX [2])?
**A.** 0.129 ± 0.018 µM

B1: C. albicans AOX2 (Candida albicans) (protein)
chain: T1 sequence (Q9UV71 27-365)
notes: twin-strep tag (pET15b.TS, pTS.CalbAOX2) kept; from E. coli FN102; in self-assembled proteoliposomes
**Q.** What does the source list for B1?
**A.** Km (purified protein): 6.3 ± 1.3 mM; kcat (purified protein): 404 ± 51 s⁻¹
